Experiment: Body temperature of mice after intravenous injection
Type: in vivo
Conditions: for body temperature at 0 min: amount injected as listed per substance
Method: Type: Out-breed, white NMRI
Average body weight: 24-27 gm
Diet: Standard food pellet
Mice fasted 12-15 hrs. prior to testing (water given during this period)
Mice all separated from one another
Mice kept in quiet and dark environment
Testing time: 1 p.m.-3 p.m. each day
Test solution is prepared by:
(b) dissolving a known amount of the refined brain extract in 0.4 ml of trishydrochloric buffer and adjusting the pH of the solution to from about 7.0 to about 7.4 by titrating with microdrops of 1 M or 0.1 M sodium hydroxide solution.
Volume of solution injected into mice:
Solution is at room temperature when injected into mice.
Mouse is placed in restrainer
Injection is made in the tail vein
Injection time: 2 minutes
Body temperature is measured by inserting a thermistor into the anal cavity to a depth of 11/2 cm (thermistor is made by Thermovit, Fu. Armatherm, Lemgo, W. Germany)
Temperature measurements are begun immediately after injection, i.e., 2 minutes after injection started
The extract obtained from the brain of 40 lungfish is used. Five mice are used in obtaining the data on the aroused lungfish and nine mice are used for the data on the estivating lungfish.

SMILES | body temperature at 0 min (pH 7.0-7.4) | body temperature at 5 min | body temperature at 10 min | body temperature at 20 min | body temperature at 30 min | body temperature at 40 min | body temperature at 50 min | body temperature at 60 min | body temperature at 2 min | further results
CC(=O)[O-].[Na+] [1.0 M SODIUM ACETATE, SODIUM ACETATE] | 37.0 | 37.5 | 38.0 | 38.3 | 38.5 | 38.0 | 38.1 | 38.2 | – | body temperature at 0 min (pH 7.0-7.4, listed as 3.0 M SODIUM ACETATE): 37.5; body temperature at 5 min (listed as 3.0 M SODIUM ACETATE): 36.2; body temperature at 10 min (listed as 3.0 M SODIUM ACETATE): 37.0; body temperature at 20 min (listed as 3.0 M SODIUM ACETATE): 38.0; body temperature at 30 min (listed as 3.0 M SODIUM ACETATE): 37.7; body temperature at 40 min (listed as 3.0 M SODIUM ACETATE): 38.1; body temperature at 50 min (listed as 3.0 M SODIUM ACETATE): 38.6; body temperature at 60 min (listed as 3.0 M SODIUM ACETATE): 38.5
O=C([O-])O.[K+] [3.0 M KHCO3, KHCO3] | 37.1 | 35.0 | 36.5 | 37.8 | 37.9 | 38.4 | 38.4 | 38.0 | 34.7 | body temperature at 0 min (pH 7.0-7.4, listed as 0.3 M KHCO3): 37.6; body temperature at 0 min (pH 7.0-7.4, listed as 1.0 M KHCO3): 38.0; body temperature at 2 min (listed as 0.3 M KHCO3): 36.3; body temperature at 2 min (listed as 1.0 M KHCO3): 37.2; body temperature at 5 min (listed as 0.3 M KHCO3): 37.2; body temperature at 5 min (listed as 1.0 M KHCO3): 37.3; body temperature at 10 min (listed as 0.3 M KHCO3): 38.0; body temperature at 10 min (listed as 1.0 M KHCO3): 38.5; body temperature at 20 min (listed as 1.0 M KHCO3): 39.5; body temperature at 30 min (listed as 0.3 M KHCO3): 38.3; body temperature at 30 min (listed as 1.0 M KHCO3): 39.0; body temperature at 40 min (listed as 1.0 M KHCO3): 39.1; body temperature at 50 min (listed as 0.3 M KHCO3): 38.3
[Cl-].[Na+] [3.0 M NaCl, NaCl] | 36.0 | 36.5 | 38.1 | 37.9 | 37.4 | 37.4 | 37.6 | 37.7 | 34.9 | –
N[C@@H](CC(=O)O)C(=O)O [ASPARTIC ACID] | 36.7 | 36.7 | 38.0 | 37.5 | 37.6 | 37.8 | 37.8 | 37.8 | 35.5 | –
O=C(O)CCCC(=O)O [GLUTARIC ACID] | 36.6 | 37.0 | 38.1 | 38.5 | 38.5 | 38.4 | 38.6 | 39.0 | 36.5 | –
N[C@@H](Cc1c[nH]c2ccccc12)C(=O)O [TRYPTOPHAN] | 36.9 | 36.8 | 37.1 | 37.4 | 36.5 | 36.8 | 37.0 | 36.9 | 36.4 | –

— US4382920A, “Hormone-like peptides and use thereof” (Perignon Investments Ltd., priority 1980, dated 1983)
